Source: patent US12495798B2, “Nicotinamide compound and herbicidal composition comprising compound” (KOREA RESEARCH INSTITUTE OF CHEMICAL TECHNOLOGY, priority 2019, dated 2025)

How the values were obtained:
Type in all cases: in vivo
cocklebur = experiment: Herbicidal activity test against upland field weeds (foliar treatment test); parameters: key to Foliar treatment herbicidal activity, Cocklebur: 0 (no control); 100 (complete control); settings: 50 g ai/ha, scale 0-100
Method in brief: (§1)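 Greenhouse-grown plants (30±5 °C, 14/10 h light/dark) foliar hand-sprayed with compound in 50% acetone, 0.1% Tween-20 at 50 or 75 g a.i./ha. Control visually scored 0 (none) to 100 (complete) versus untreated after 14 days, or 21 days if needed.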

quack grass [1] = experiment: Herbicidal activity test against upland field weeds (soil treatment test); parameters: key to Soil treatment herbicidal activity, quack grass: 0 (no control); 100 (complete control); settings: 50 g ai/ha, scale 0 (no control) to 100 (complete control)
Method in brief: (§2)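 Pre-emergence soil surface spray, day after sowing, into sandy loam pots with fertilizer; compounds at 50 or 75 g a.i./ha in 50% acetone, 0.1% Tween-20. Greenhouse at 30±5 °C, 14/10 h light/dark; visual control rated 0–100 against untreated after 14 days (21 if needed).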

crabgrass = experiment: as above; parameters: key to Soil treatment herbicidal activity, Crabgrass: 0 (no control); 100 (complete control); settings: 50 g ai/ha, scale 0 (no control) to 100 (complete control); for pest or weed control at 50 g/ha: Digitaria sanguinalis
Method in brief: as §2

velvetleaf [2] = experiment: Herbicidal activity test against upland field weeds (foliar treatment test); parameters: key to Foliar treatment herbicidal activity, velvet leaf: 0 (no control); 100 (complete control); settings: 50 g ai/ha; for pest or weed control at 50 g/ha: Abutilon theophrasti, scale 0-100, read-out: Foliar treatment herbicidal activity, velvet leaf
Method in brief: as §1

corn = experiment: Phytotoxicity test for upland field crops (foliar treatment test); parameters: key: 0 (no harm); 9 (complete withered)
Method in brief: (§3)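 Phytotoxicity was rated on a 0 (no harm) to 9 (complete withered) scale relative to untreated plants, 7 and 14 days after spraying. Crops had been grown in fertilized horticultural soil under greenhouse conditions before foliar application at 19˜300 g a.i./ha.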

soybean = experiment: as above; parameters: key: 0 (no harm); 9 (complete withered)
Method in brief: as §3

cotton = experiment: as above; parameters: key: 0 (no harm); 9 (complete withered)
Method in brief: as §3

wheat = experiment: as above; parameters: key: 0 (no harm); 9 (complete withered)
Method in brief: as §3

rice = experiment: as above; parameters: key: 0 (no harm); 9 (complete withered)
Method in brief: as §3

barnyard grass = experiment: Herbicidal activity test against upland field weeds (soil treatment test); settings: Echinochloa crus-galli, 50 g ai/ha, scale 0 (no control) to 100 (complete control)
Method in brief: as §2

sorghum = experiment: Herbicidal activity test against upland field weeds (foliar treatment test); settings: Sorghum, 50 g ai/ha, scale 0-100
Method in brief: as §1

velvetleaf [3] = experiment: Herbicidal activity test against upland field weeds (soil treatment test); parameters: key to Soil treatment herbicidal activity, velvet leaf: 0 (no control); 100 (complete control); settings: 50 g ai/ha, scale 0 (no control) to 100 (complete control)
Method in brief: as §2

quack grass [4] = experiment: Herbicidal activity test against upland field weeds (foliar treatment test); parameters: key to Foliar treatment herbicidal activity, quack grass: 0 (no control); 100 (complete control); settings: 50 g ai/ha, scale 0-100
Method in brief: as §1

[5] = 50 g ai/ha, Corn (7 days after treatment)
[6] = 50 g ai/ha, Corn (14 days after treatment)
[7] = 100 g ai/ha, Corn (7 days after treatment)
[8] = 100 g ai/ha, Corn (14 days after treatment)
[9] = 50 g ai/ha, Soybean (7 days after treatment)
[10] = 50 g ai/ha, Soybean (14 days after treatment)
[11] = 100 g ai/ha, Soybean (7 days after treatment)
[12] = 100 g ai/ha, Soybean (14 days after treatment)
[13] = 50 g ai/ha, Cotton (7 days after treatment)
[14] = 50 g ai/ha, Cotton (14 days after treatment)
[15] = 100 g ai/ha, Cotton (7 days after treatment)
[16] = 100 g ai/ha, Cotton (14 days after treatment)
[17] = 50 g ai/ha, Wheat (7 days after treatment)
[18] = 50 g ai/ha, Wheat (14 days after treatment)
[19] = 100 g ai/ha, Wheat (7 days after treatment)
[20] = 100 g ai/ha, Wheat (14 days after treatment)
[21] = 50 g ai/ha, Rice (7 days after treatment)
[22] = 50 g ai/ha, Rice (14 days after treatment)
[23] = 100 g ai/ha, Rice (7 days after treatment)
[24] = 100 g ai/ha, Rice (14 days after treatment)

| Compound | Soil treatment herbicidal activity, quack grass (quack grass [1]) | Foliar treatment phytotoxicity, Corn (corn; [5]) | Foliar treatment phytotoxicity, Corn (corn; [6]) | Foliar treatment phytotoxicity, Corn (corn; [7]) | Foliar treatment phytotoxicity, Corn (corn; [8]) | Foliar treatment phytotoxicity, Soybean (soybean; [9]) | Foliar treatment phytotoxicity, Soybean (soybean; [10]) | Foliar treatment phytotoxicity, Soybean (soybean; [11]) | Foliar treatment phytotoxicity, Soybean (soybean; [12]) | Foliar treatment phytotoxicity, Cotton (cotton; [13]) | Foliar treatment phytotoxicity, Cotton (cotton; [14]) | Foliar treatment phytotoxicity, Cotton (cotton; [15]) | Foliar treatment phytotoxicity, Cotton (cotton; [16]) | Foliar treatment phytotoxicity, Wheat (wheat; [17]) | Foliar treatment phytotoxicity, Wheat (wheat; [18]) | Foliar treatment phytotoxicity, Wheat (wheat; [19]) | Foliar treatment phytotoxicity, Wheat (wheat; [20]) | Foliar treatment phytotoxicity, Rice (rice; [21]) | Foliar treatment phytotoxicity, Rice (rice; [22]) | Foliar treatment phytotoxicity, Rice (rice; [23]) | further results |
| --- | --- | --- | --- | --- | --- | --- | --- | --- | --- | --- | --- | --- | --- | --- | --- | --- | --- | --- | --- | --- | --- |
| Cn1ncnc1COCc1nc(C(F)(F)F)ccc1C(=O)Nc1nnnn1C [Compound No. 1-102, 2-(((1-methyl-1H-1,2,4-triazol-5-yl)methoxy)methyl)-N-(1-methyl-1H-tetrazol-5-yl)-6-(trifluoromethyl)nicotinamide] | 0 | 6 | 6 | 6 | 8 | 5 | 8 | 6 | 9 | 4 | 8 | 5 | 9 | 2 | 2 | 3 | 3 | 6 | 8 | 7 | pest or weed control at 50 g/ha (cocklebur; Xanthium strumarium): 80%; pest or weed control at 50 g/ha (crabgrass): 20%; pest or weed control at 50 g/ha (velvetleaf [2]): 80%; Foliar treatment phytotoxicity, Rice (rice; [24]): 9; pest or weed control at 50 g/ha (barnyard grass): 20%; plant injury at 50 g/ha (sorghum): 50%; pest or weed control at 50 g/ha (velvetleaf [3]; Abutilon theophrasti, read-out: Soil treatment herbicidal activity, velvet leaf): 40%; Foliar treatment herbicidal activity, quack grass (quack grass [4]): 0 |
| Cn1nnc(COCc2nc(C(F)(F)F)ccc2C(=O)N(C(=O)c2ccccc2)c2nnnn2C)n1 [Compound No. 2-68, N-benzoyl-N-(1-methyl-1H-tetrazol-5-yl)-2-(((2-methyl-2H-tetrazol-5-yl)methoxy)methyl)-6-(trifluoromethyl)nicotinamide] | 0 | 4 | 4 | 6 | 6 | 5 | 5 | 6 | 7 | 4 | 9 | 5 | 9 | 0 | 0 | 1 | 0 | 6 | 5 | 6 | Foliar treatment herbicidal activity, Cocklebur (cocklebur): 100; Soil treatment herbicidal activity, Crabgrass (crabgrass): 100; Foliar treatment herbicidal activity, velvet leaf (velvetleaf [2]; scale 0-100): 100; Foliar treatment phytotoxicity, Rice (rice; [24]): 8; pest or weed control at 50 g/ha (barnyard grass): 98%; plant injury at 50 g/ha (sorghum): 80%; Soil treatment herbicidal activity, velvet leaf (velvetleaf [3]): 100; Foliar treatment herbicidal activity, quack grass (quack grass [4]): 0 |
| Cn1nnc(CSCc2nc(C(F)(F)F)ccc2C(=O)Nc2nnnn2C)n1 [Compound No. 2-102, N-(1-methyl-1H-tetrazol-5-yl)-2-((((2-methyl-2H-tetrazol-5-yl)methyl)thio)methyl)-6-(trifluoromethyl)nicotinamide] | 0 | 0 | 0 | 0 | 0 | 0 | 0 | 0 | 0 | 0 | 0 | 0 | 0 | 0 | 0 | 0 | 1 | 3 | 3 | 4 | Foliar treatment herbicidal activity, Cocklebur (cocklebur): 100; Soil treatment herbicidal activity, Crabgrass (crabgrass): 100; pest or weed control at 50 g/ha (velvetleaf [2]): 80%; Foliar treatment phytotoxicity, Rice (rice; [24]): 4; pest or weed control at 50 g/ha (barnyard grass): 98%; plant injury at 50 g/ha (sorghum): 70%; Soil treatment herbicidal activity, velvet leaf (velvetleaf [3]): 100; Foliar treatment herbicidal activity, quack grass (quack grass [4]): 0 |
| Cn1nnnc1COc1nc(C(F)(F)F)ccc1C(=O)Nc1nnnn1C [Compound No. 1-1, N-(1-methyl-1H-tetrazol-5-yl)-2-((1-methyl-1H-tetrazol-5-yl)methoxy)-6-(trifluoromethyl)nicotinamide] | 0 | 2 | 2 | 4 | 4 | 7 | 0 | 8 | 9 | 3 | 0 | 3 | 7 | 1 | 1 | 3 | 2 | 4 | 8 | 6 | Foliar treatment herbicidal activity, Cocklebur (cocklebur): 100; pest or weed control at 50 g/ha (crabgrass): 98%; pest or weed control at 50 g/ha (velvetleaf [2]): 98%; Foliar treatment phytotoxicity, Rice (rice; [24]): 9; pest or weed control at 50 g/ha (barnyard grass): 95%; plant injury at 50 g/ha (sorghum): 70%; Soil treatment herbicidal activity, velvet leaf (velvetleaf [3]): 100; Foliar treatment herbicidal activity, quack grass (quack grass [4]): 0 |
